Measurements published in patent US20110201629A1, “CYCLOHEXYL AMIDE DERIVATIVES AS CRF RECEPTOR ANTAGONISTS” (priority 2010, published 2011).
Counter-ions that a name gives are not always drawn.

How the values were obtained:
[1] = biological target: T1, CRF-1 (UniProt P34998); test: CRF-1 receptor antagonism, HTRF cAMP assay in CHO cells; format: cell-based, human; conditions: inhibition of CRF induced cAMP response in CHO cells, EC50 concentration of CRF
T1 sequence (P34998 1-415): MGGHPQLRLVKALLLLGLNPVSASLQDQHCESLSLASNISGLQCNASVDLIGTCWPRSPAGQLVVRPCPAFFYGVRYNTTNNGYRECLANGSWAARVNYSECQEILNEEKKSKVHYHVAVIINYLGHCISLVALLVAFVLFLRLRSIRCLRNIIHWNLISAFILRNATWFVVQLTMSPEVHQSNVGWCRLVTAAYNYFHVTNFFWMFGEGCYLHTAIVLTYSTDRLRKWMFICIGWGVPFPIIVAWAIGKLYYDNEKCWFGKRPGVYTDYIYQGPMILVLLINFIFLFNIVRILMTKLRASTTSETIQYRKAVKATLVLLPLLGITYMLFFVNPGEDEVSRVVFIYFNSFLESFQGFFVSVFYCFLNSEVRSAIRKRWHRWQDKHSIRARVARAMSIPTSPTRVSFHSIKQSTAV
Protocol: (§1) The CRF-1 and CRF-2 receptor antagonistic activity of the agents of the invention has been determined in vitro in the following assay:
(§2) Chinese hamster ovary (CHO) cells expressing either the human or rat recombinant CRF-1 or human CRF-2α (Chen et al, Proc Natl Acad Sci USA 90, 8967-8971, 1993; Liaw et al, Endocrinology 137, 72-77, 1996) are propagated in Dulbecco's modified Eagle medium supplemented with 10% foetal calf serum, non-essential amino acids, 100 U/ml penicillin, 100 mg/l streptomycin and 1 g/l geneticin. CHO cells expressing the rat CRF-2β receptor (Wu et al, Endocrinology 148, 1675-1687, 2007) are propagated in HAM's-F12 Glutamax supplemented with 10% foetal calf serum, 100 IU/ml penicillin, 100 mg/l streptomycin, 600 μg/ml hygromycin, 10 μg/ml blasticidin and induced with 1 μg/ml of tetracyclin for 24 hours prior to experimentation. For cyclic AMP determinations the Homogeneous Time-Resolved Fluoresce (HTRF) cAMP dynamic 2 kit (Cisbio International, France) was used as per manufacturers' instructions. CHO cells, previously cryopreserved at 3×10^6 viable cells per ml of cell recovery media (Cat no. 12648-010, Invitrogen), were thawed, centrifuged for 7 mins at 1200 rpm and resuspended in serum free media to give a concentration of 0.5×10^6 cells per/ml. Compounds of the invention, prepared in DMSO, and subsequently diluted 50 fold in assay buffer (1× Hanks balanced salt solution, 0.2% (w/v) bovine serum albumin, 1.7 mM isobutylmethylxanthine and 10 mM Hepes, pH7.4) were then added onto the 384 well low volume black assay plate (Corning Inc, US, Cat. 3676). 2000 cells/well were then added to the assay plate further diluting the compound 2 fold and then the plate was incubated for 15 mins at room temperature. Following incubation, buffer containing a 5 times final concentration of agonist, typically r/h CRF is added to the plate and incubated for 30 min at room temperature. Finally, d2 dye labeled cAMP and cryptate labeled anti-cAMP antibody, both made in lysis buffer, are added to the plate followed by a settling period of 1 hour at room temperature. During the settling period cAMP produced by the cells competes with the d2 labelled cAMP for the anti-cAMP cryptate. The plate is read on the Pherastar (BMG, Germany). Increasing levels of endogenous cAMP produced by cells can be followed by a decrease of FRET fluorescent signal and vice versa. Values represented by a change in arbitrary fluorescence units are converted into cAMP concentrations by use of a standard curve, the reagents for which are supplied with the kit. Antagonist dose response curves (1 nM-31.6 μM) are constructed and tested in the presence of an EC50 concentration of CRF relevant to the receptor (hCRF-1=3 nM, hCRF-2α=2 nM, rCRF-1=1 nM and rCRF-2β=0.1 nM). IC50 values of antagonists are calculated by fitting the percent inhibition of CRF induced cAMP response by increasing concentrations of the antagonists. The fit is performed using the nonlinear logistic function of the Activitybase software package v 5.4.5.27 (IDBS, UK).

[2] = biological target: T2, CRF-2 (UniProt Q13324); test: CRF-2 receptor antagonism, HTRF cAMP assay in CHO cells; format: cell-based, human; conditions: Biological data Table 2; inhibition of CRF induced cAMP response in CHO cells, EC50 concentration of CRF
T2 sequence (Q13324 1-411): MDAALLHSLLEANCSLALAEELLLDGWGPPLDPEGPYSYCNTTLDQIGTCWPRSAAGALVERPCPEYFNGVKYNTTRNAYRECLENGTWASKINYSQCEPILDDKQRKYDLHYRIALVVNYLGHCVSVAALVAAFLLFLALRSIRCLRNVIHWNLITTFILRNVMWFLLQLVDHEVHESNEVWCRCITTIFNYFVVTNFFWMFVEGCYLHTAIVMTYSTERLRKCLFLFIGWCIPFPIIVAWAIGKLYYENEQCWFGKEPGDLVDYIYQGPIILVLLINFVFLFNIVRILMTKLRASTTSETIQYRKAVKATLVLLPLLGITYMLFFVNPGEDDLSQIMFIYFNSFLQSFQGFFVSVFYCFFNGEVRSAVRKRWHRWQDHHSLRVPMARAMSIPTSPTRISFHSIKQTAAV
Protocol: as §1, §2

Row | SMILES | IC50 ([1]; Biological data Table 1) [nM] | IC50 [2] [nM] | IC50 ([1]; Biological data Table 2) [nM]
1 | Cc1ncc(Cl)cc1C(=O)N[C@H]1CC[C@H](CN2C(=O)C(C)(C)c3cccnc32)CC1 [Example 2.3, Trans-5-chloro-N-[4-(3,3-dimethyl-2-oxo-2,3-dihydro-pyrrolo[2,3-b]pyridin-1-ylmethyl)-cyclohexyl]-2-methyl-nicotinamide] | 242 |  | 
2 | Cc1ncc(Cl)cc1C(=O)N[C@H]1CC[C@H](Cn2c(=O)n(C)c3nccc(C)c32)CC1 [Example 2.43, Trans-5-Chloro-N-[4-(3,7-dimethyl-2-oxo-2,3-dihydro-imidazo[4,5-b]pyridin-1-ylmethyl)-cyclohexyl]-2-methyl-nicotinamide] | 416 |  | 
3 | C[C@@]1(F)C(=O)N(C[C@H]2CC[C@H](NC(=O)c3cc(C(F)(F)F)ccc3Cl)CC2)c2ccccc21 [Example 2.10, Trans-2-Chloro-N-[4-((S)-3-fluoro-3-methyl-2-oxo-2,3-dihydro-indol-1-ylmethyl)-cyclohexyl]-5-trifluoromethyl-benzamide] | 201 |  | 
4 | O=C(N[C@H]1CC[C@H](CN2C(=O)C3(CC3)c3cc(F)ccc32)CC1)c1cc(C(F)(F)F)ccc1Cl [Example 2.5, Trans-2-chloro-N-{-4-((5′-fluoro-2′-oxospiro[cyclopropane-1,3′-indoline]-1′-yl)methyl)cyclohexyl}-5-(trifluoromethyl)benzamide] | 9 |  | 
5 | O=C(N[C@H]1CC[C@H](CN2C(=O)C(F)(F)c3ccc(Cl)cc32)CC1)c1cc(C(F)(F)F)ccc1Cl [Example 2.1, Trans-2-chloro-N-[4-(6-chloro-3,3-difluoro-2-oxo-2,3-dihydro-indol-1-ylmethyl)-cyclohexyl]-5-trifluoromethyl-benzamide] | 149 |  | 
6 | COc1ccc2c(c1)C(C)(C)C(=O)N2C[C@H]1CC[C@H](NC(=O)c2cc(C(F)(F)F)ccc2Cl)CC1 [Example 2.7, Trans-2-Chloro-N-[4-(5-methoxy-3,3-dimethyl-2-oxo-2,3-dihydro-indol-1-ylmethyl)-cyclohexyl]-5-trifluoromethyl-benzamide] | 166 |  | 
7 | O=C(N[C@H]1CC[C@H](CN2C(=O)Cc3cccnc32)CC1)c1cc(C(F)(F)F)ccc1Cl [Example 2.4, Trans-2-chloro-N-[4-(2-oxo-2,3-dihydro-pyrrolo[2,3-b]pyridin-1-ylmethyl)-cyclohexyl]-5-trifluoromethyl-benzamide] | 900 |  | 
8 | Cc1ncc(C(F)(F)F)cc1C(=O)N[C@H]1CC[C@H](CN2C(=O)C(C)(C)c3ccccc32)CC1 [Example 2.52, Trans-N-[4-(3,3-Dimethyl-2-oxo-2,3-dihydro-indol-1-ylmethyl)-cyclohexyl]-2-methyl-5-trifluoromethyl-nicotinamide] | 612 |  | 
9 | O=C(N[C@H]1CC[C@H](CN2C(=O)Cc3ccc(Cl)cc32)CC1)c1cc(C(F)(F)F)ccc1Cl [Example 1.1, Trans-2-Chloro-N-[4-(6-chloro-2-oxo-2,3-dihydro-indol-1-ylmethyl)-cyclohexyl]-5-trifluoromethyl-benzamide] | 65 |  | 
10 | CCn1c(=O)n(C[C@H]2CC[C@H](NC(=O)c3cc(Cl)cnc3C)CC2)c2ccncc21 [Example 2.42, Trans-5-Chloro-N-[4-(3-ethyl-2-oxo-2,3-dihydro-imidazo[4,5-c]pyridin-1-ylmethyl)-cyclohexyl]-2-methyl-nicotinamide] | 275 |  | 
11 | C[C@]1(F)C(=O)N(C[C@H]2CC[C@H](NC(=O)c3cc(C(F)(F)F)ccc3Cl)CC2)c2ccccc21 [Example 2.9, Trans-2-Chloro-N-[4-((R)-3-fluoro-3-methyl-2-oxo-2,3-dihydro-indol-1-ylmethyl)-cyclohexyl]-5-trifluoromethyl-benzamide] | 16 |  | 
12 | COc1cc2c(cn1)C(C)(C)C(=O)N2C[C@H]1CC[C@H](NC(=O)c2cc(C(F)(F)F)ccc2Cl)CC1 [Example 2.8, Trans-2-Chloro-N-[4-(6-methoxy-3,3-dimethyl-2-oxo-2,3-dihydro-pyrrolo[3,2-c]pyridin-1-ylmethyl)-cyclohexyl]-5-trifluoromethyl-benzamide] | 347 |  | 

The remaining lines, values ahead:

Row | IC50 ([1]; Biological data Table 1) [nM] | IC50 [2] [nM] | IC50 ([1]; Biological data Table 2) [nM] | SMILES
13 | 126 |  |  | CC1(C)C(=O)N(C[C@H]2CC[C@H](NC(=O)c3cc(Cl)ccc3Cl)CC2)c2ccccc21 [Example 5.2, Trans-2,5-Dichloro-N-[4-(3,3-dimethyl-2-oxo-2,3-dihydro-indol-1-ylmethyl)-cyclohexyl]-benzamide]
14 |  | 3870 | 47 | O=C(N[C@H]1CC[C@H](CN2C(=O)Cc3ccc(F)cc32)CC1)c1cc(C(F)(F)F)ccc1Cl [Example 3.2, Trans-2-Chloro-N-[4-(6-fluoro-2-oxo-2,3-dihydro-indol-1-ylmethyl)-cyclohexyl]-5-trifluoromethyl-bcnzamide]
15 | 37 |  |  | Cn1c(=O)n(C[C@H]2CC[C@H](NC(=O)c3cc(C(F)(F)F)ccc3Cl)CC2)c2ccccc21 [Example 3.8, Trans-2-Chloro-N-[4-(3-methyl-2-oxo-2,3-dihydro-benzoimidazol-1-ylmethyl)-cyclohexyl]-5-trifluoromethyl-benzamide]
16 | 205 |  |  | O=C(N[C@H]1CC[C@H](CN2C(=O)Cc3cc(Cl)ccc32)CC1)c1cc(C(F)(F)F)ccc1Cl [Example 3.1, Trans-2-Chloro-N-[4-(5-chloro-2-oxo-2,3-dihydro-indol-1-ylmethyl)-cyclohexyl]-5-trifluoromethyl-benzamide]
17 | 145 |  |  | Cn1c(=O)n(C[C@H]2CC[C@H](NC(=O)c3cc(C(F)(F)F)ccc3Cl)CC2)c2ncccc21 [Example 3.6, Trans-2-Chloro-N-[4-(1-methyl-2-oxo-1,2-dihydro-imidazo[4,5-b]pyridin-3-ylmethyl)-cyclohexyl]-5-trifluoromethyl-benzamide]
18 | 91 |  |  | O=C(N[C@H]1CC[C@H](Cn2c(=O)[nH]c3ccccc32)CC1)c1cc(C(F)(F)F)ccc1Cl [Example 3.7, Trans-2-Chloro-N-[4-(2-oxo-2,3-dihydro-bcnzoimidazol-1-ylmethyl)-cyclohexyl]-5-trifluoromethyl-benzamide]
19 | 28 |  |  | CC1(C)C(=O)N(C[C@H]2CC[C@H](NC(=O)c3cc(C(F)(F)F)ccc3Cl)CC2)c2ccc(F)cc21 [Example 3.3, Trans-2-Chloro-N-[4-(5-fluoro-3,3-dimethyl-2-oxo-2,3-dihydro-indol-1-ylmethyl)-cyclohexyl]-5-trifluoromethyl-benzamide]
20 | 118 |  |  | Cn1c(=O)n(C[C@H]2CC[C@H](NC(=O)c3cc(Cl)ccc3Cl)CC2)c2ccccc21 [Example 4.2, Trans-2,5-Dichloro-N-[4-(3-methyl-2-oxo-2,3-dihydro-benzoimidazol-1-ylmethyl)-cyclohexyl]-benzamide trifluoroacetate]
